A word on the melting point: it is the temperature, or range, at which the solid turns liquid.

Bounds are passed on as bounds.

The text below walks through data of a melting point compilation (Tetko et al.; mined from patent text by program, amines drawn as free bases though some values may be those of a salt).

Compound `COc1ccc(-c2ccnc3c(C(=O)c4cccs4)cnn23)cc1NC(=O)NC(C)C` gave a melting point of 202 to 204 °C.

Compound `CCOC(=O)[C@H](Cc1ccc(-c2c(OC)cc(CO)cc2OC)cc1)NC(=O)c1c(F)cccc1Cl` gave a melting point of 101 to 104 °C.

As for `O=C(OCC1OC(c2ccc(Cl)c(Cc3cc4ccccc4s3)c2)C(OC(=O)c2ccccc2)C(OC(=O)c2ccccc2)C1O)c1ccccc1` (stereo unspecified), the melting point fell in the range of 215 to 217 °C.

For the compound `CC(=O)N1c2cc([N+](=O)[O-])ccc2[C@H]2Cc3ccc([N+](=O)[O-])cc3[C@H]21` (relative stereo), the melting point was in the range of 264 to 266 °C.

`CNC(=O)c1ccc2ccccc2c1` displayed a melting point of 108 to 109 °C.

Take `CCOC(=O)Nc1ccn2cc(C)nc2c1I`: the melting point worked out at 148 °C.

`O=C(CN1C(=O)c2ccccc2C1=O)NCc1nncn1-c1ccc(Cl)cc1C(=O)c1ccccc1` gave a melting point of 214 to 215 °C.

For `O=C(O)Cn1c(-c2ccc(F)cc2)nc2cccnc21`, the melting point is more than 250 °C.

In the case of `CCn1c(N)c(C(=O)NC)c(=O)c2ccc(-c3ccc(NS(=O)(=O)c4cccc(Cl)c4Cl)cc3)nc21`, the melting point stood at 210 °C.

For `BrCC1(c2ccc3c(c2)Cc2ccccc2-3)OCCO1`, the melting point came out at 90 °C.

`CC(C)(C)NC(=NC#N)Nc1cnc2ccccc2c1` showed a melting point of 228 to 229 °C.

`Cc1cscc1NC(=S)Nc1cc(Cl)c(Cl)cc1N` registered a melting point of 310 to 320 °C.

As for `CCCN(CCC)C(=O)c1cc(C(=O)N[C@@H](Cc2cc(F)cc(F)c2)[C@H](O)CNC2(c3cc(CN(C)C)ccn3)CC2)cc(-c2ncco2)c1`, the melting point fell in the range of 70 to 72 °C.

`Cc1oc(-c2ccccc2)nc1COc1ccc(COc2ccc3ccccc3c2CCC(=O)O)cc1` came in with a melting point of 161 to 162 °C.

The compound `O=C(CNC(=O)OCc1ccccc1)Nn1cccc1C(=O)c1ccccc1` returned a melting point of 96 to 98 °C.

For `CSc1ccc(-c2n[nH]c(=O)cc2-c2ccc(Cl)cc2)cc1`, the melting point is 202 to 204 °C.

In the case of `COc1ccc2c(c1)C(C(Cl)(Cl)Cl)OC(C(Cl)(Cl)Cl)O2` (stereo unspecified), the melting point lay in the range of 105 to 107 °C.

As for `CCOC(=O)C1CC(O)CN1C(=O)c1ccc(OC)c(OC)c1` (stereo unspecified), the melting point was found to be 128 °C.

Consider `CCNC(=O)/C=C(C)/C=C/C=C(C)/C=C/c1c(C)cc(OC(F)(F)F)c(C)c1C`, for which the melting point lay in the range of 198 to 200 °C.

Consider `Fc1cccc(F)c1COc1cccnc1NC(=S)Nc1ccccc1`, for which the melting point is 132 to 133 °C.

With `CN1CCC(c2cc3cc(C4(O)CCCCC4)ccc3o2)CC1`, the melting point fell in the range of 155 to 157 °C.

In turn, `COc1cc2nc(N3CCN(c4ccc(Cl)ccc4=O)CC3)nc(N)c2cc1OC` gave a melting point of 202 to 204 °C.

With `OCCNc1c(Br)cnc2ccccc12`, the melting point was in the range of 163 to 165 °C.

Compound `CCCCCCCCCCCCCC(=O)Nc1ccc(Cl)c(NC(=CC(=O)OCC)OCC)c1` displayed a melting point of 115 to 118 °C.

Take `OC(COc1cccc2[nH]ncc12)CN1CCC(COc2ccccc2)CC1` (stereo unspecified): the melting point fell in the range of 141 to 142 °C.

`CCNC1(c2ccccc2Cl)C(=O)N(Cc2ccc(C(=O)NC(C)(CO)CO)cc2)c2ccc(Cl)cc21` (stereo unspecified) yielded a melting point of 138 to 141 °C.

In turn, `NC(=O)N1C(=O)Cc2cc(N)ccc21` had a melting point of 189 to 191 °C.

`CCOC(=O)c1cc(CCc2cc(OC)ccc2OC)ccc1NC(C)=O` gave a melting point of 93 °C.

For the compound `CC(C)(C)c1ncc2cc(Cl)nc(Cl)n12`, the melting point was in the range of 109 to 110 °C.

Compound `CCOC(=O)c1c(Cn2cncn2)nc2cc(OC)c(OC)cc2c1-c1ccc(OC)cc1` came in with a melting point of 150 to 151 °C.

`Nc1ccccc1Sc1ncc[nH]1` registered a melting point of 135 to 137 °C.

`CCCN(CC1CC1)c1nc(C)[nH]c2c(-c3ccc(Cl)cc3Cl)nc(C)c1-2` displayed a melting point of 66 to 68 °C.

With `Cc1cc(O)c(S(=O)C(C)(C)C)c(=O)o1` (stereo unspecified), the melting point worked out at 119 °C.

`Cc1ccccc1Oc1cccc2c1OC(=O)C2(C)C` displayed a melting point of 115 to 117 °C.

The compound `CC(C)(C)C(=O)NNc1ccc([N+](=O)[O-])cc1Br` had a melting point of 145 °C.

`Cn1c2ccccc2c(=O)c2cscc21` had a melting point of 188 to 190 °C.

Take `CC1(n2ncc(-c3ccc(S(C)(=O)=O)cc3)c(-c3ccc(F)cc3)c2=O)CCCC1`: the melting point lay within 107 to 110 °C.

Take `Cc1cc(=O)n2c3c(cc(C(OCc4ccccc4)(C(F)(F)F)C(F)(F)F)cc13)CC2`: the melting point was in the range of 207 to 208 °C.

On to `CC(C)NCC(O)COC1c2ccccc2C(=O)N1c1cccc(Cl)c1` (stereo unspecified), for which the melting point was found to be 128 °C.

The compound `CCc1cc2c(NCc3ccccc3)ncnc2s1` displayed a melting point of 128 to 131 °C.

Compound `Cc1nc(-c2ccccc2)cc(-c2cccc(C#N)c2)c1NC(=O)CCN1CCOCC1` yielded a melting point of 150 to 152 °C.

As for `COc1ccc(N(C(=O)CN2C(=O)C(Cc3cc(C)n[nH]3)C(=O)N(c3ccccc3)c3ccccc32)C(C)C)cc1` (stereo unspecified), the melting point fell in the range of 156 to 159 °C.

In turn, `CS(=O)(=O)c1ccc(-c2cocc2-c2ccc(F)cc2)cc1` showed a melting point of 160 to 161 °C.

With `Fc1ccccc1COC1COC(CCl)OC1` (stereo unspecified), the melting point is 60 to 62 °C.

In turn, `O=[N+]([O-])c1c(N2CCc3ccccc3CC2)nc2c(c1O)CCCCC2` returned a melting point of more than 200 °C.

Consider `CC1(N2C(=O)c3ccc(CNC(=O)c4ccc(S(C)(=O)=O)cc4)cc3C2=O)CCC(=O)NC1=O` (stereo unspecified), for which the melting point lay within 166 to 168 °C.

For the compound `CCOC(=O)C(=CNc1ccc(C2=NNC(=O)CC2)cc1)C(=O)OCC`, the melting point was 164 °C.

`CC(O)(c1ccc(F)cc1)C1CCN(CC2CC(c3ccc4[nH]c(=O)oc4c3)=NO2)CC1` (stereo unspecified) registered a melting point of 125 to 134 °C.

`CC(=O)Nc1ccc(C(NC(c2ccccc2)c2ccccc2)P(O)O)cc1` (stereo unspecified) showed a melting point of 196 to 200 °C.

As for `CSc1cc(C(=O)O)cc([N+](=O)[O-])c1C(=O)c1ccccc1`, the melting point was 210 to 213 °C.

As for `CCOC(=O)C(C)(C#N)c1ccc2c(c1)Cc1cccnc1O2` (stereo unspecified), the melting point was in the range of 119 to 120 °C.

With `COCCN1CCc2ccc(OC)c(Nc3ncc(Cl)c(Nc4ccc(N5CCOCC5)cc4OC)n3)c2CC1`, the melting point lay in the range of 68 to 80 °C.

On to `CC(O)C(C)(C)NC(=S)NC(=O)c1ccccc1` (stereo unspecified), for which the melting point is 136 to 138 °C.

Take `C#CCc1c(C)nc2c(NCc3c(C)cccc3NC(=S)NC(=O)c3ccccc3)cccn12`: the melting point fell in the range of 165 to 166 °C.

The compound `CN1c2ccccc2-c2nccn2-c2ccccc21` registered a melting point of 194 to 197 °C.

Compound `COC(=O)c1ccc2c(c1)C(Oc1ccccn1)C(O)C(C)(C)O2` (stereo unspecified) returned a melting point of 202 to 204 °C.

Take `CCOc1cc(OC)c2cc(C(=O)CN=[N+]=[N-])ccc2n1`: the melting point was 129 to 132 °C.

Compound `CSc1cc(C=O)nn1C` displayed a melting point of 47 to 48 °C.

Turning to `COc1c(O)ccc2oc(-c3ccc(O)cc3)cc12`, the melting point lay in the range of 165 to 168 °C.

On to `CC(C)(Br)C(=O)NCc1ccccc1`, for which the melting point was 73.4 to 75.5 °C.

`CCCCCCCCCCCCCCCCCC(=O)SC1CCN(C(C(=O)OC)c2ccccc2F)CC1` (stereo unspecified) displayed a melting point of 50 to 52 °C.

`COc1cc(OC)c2c(=O)[nH]c(-c3cc(C)c(OCCN4CCCCCC4)c(C)c3)nc2c1` yielded a melting point of 198 to 199 °C.

`Ic1ccnc2c1CCCN2`: the melting point lay in the range of 117 to 118 °C.

Regarding `C=C[C@@H]1CCC(=O)N1C(=O)[C@@H](C)Sc1cc(C(C)(C)C)c(O)c(C(C)(C)C)c1`, the melting point was 105 to 106 °C.

As for `Cc1cc([N+](=O)[O-])ccc1N1CCOCC1=O`, the melting point was 113 to 114 °C.

Compound `CN1CCN(c2cccc3c2C[C@H](NC(=O)c2ccc(Cc4ccccc4)cc2)CC3)CC1` came in with a melting point of 191 to 192 °C.

In turn, `O=[N+]([O-])c1ccc(Oc2ccc(C(F)(F)F)cc2Cl)cc1Oc1ccc(C(F)(F)F)cc1Cl` registered a melting point of 111 to 113 °C.

Turning to `O=C(O)c1cc2sccc2nc1C(=O)O`, the melting point is more than 380 °C.

In turn, `CC(=O)Nc1ccc(OCC(O)CN2CCC(NC(=O)c3ccccc3)CC2)cc1` (stereo unspecified) returned a melting point of 226 to 228 °C.

Compound `O=C1c2ccccc2C(=O)N1CC1CCOC1` (stereo unspecified) gave a melting point of 114 to 118 °C.

For the compound `CN1CC=C(C2c3ccccc3CCc3ccccc32)CC1`, the melting point was 96 to 98 °C.

`CCOC(=O)COC1CCN(C(=O)[C@H](C)NC(=O)c2ccc(C(N)=NO)cc2)CC1`: the melting point lay within 212 to 213 °C.

In the case of `COc1ccc(NS(=O)(=O)c2sc3ccc(Cl)cc3c2C)cc1N1CCN(C(=O)OC(C)(C)C)CC1`, the melting point lay within 100 to 103 °C.

The compound `CN1C(=O)Cn2cc(C(=O)NCc3ccc(Cl)cc3)c(=O)c3cc(I)cc1c32` came in with a melting point of 278 to 283 °C.

In turn, `NS(=O)(=O)c1ccc(CCNC(=O)CCn2cnc3c(=O)[nH]cnc32)cc1` returned a melting point of 212 to 216 °C.

In turn, `CCC(C(C)=CC(CNC(=O)c1cc(C)n[nH]1)=NO)[N+](=O)[O-]` (stereo unspecified) came in with a melting point of 188 to 189 °C.

`CN1[C@@H](c2cccc(Cl)c2)c2ccccc2S1(=O)=O` registered a melting point of 164 °C.

For `CC(=O)NC[C@H]1CN(c2ccc(N3CCC(n4nnnc4N)CC3)c(F)c2)C(=O)O1`, the melting point is 174 to 176 °C.

`COc1ccc(-c2c(Cl)c(CN3C(=O)CCC3=O)nc3sc4c(c23)CCN(Cc2ccccc2)C4)cc1OC` showed a melting point of 128 to 130 °C.

In the case of `CC(=O)Nc1ccc(OCCCCO[N+](=O)[O-])cc1`, the melting point lay within 92 to 98 °C.

For the compound `CSc1cc(CBr)cc(S(N)(=O)=O)c1Cc1ccccc1`, the melting point was 149 to 150 °C.

In turn, `Cc1sc(Br)c(C)c1C(=O)O` displayed a melting point of 183 to 184 °C.

Compound `C#Cc1ccc2ccc(OC(CC)C(=O)NC(C)(C)CO)cc2c1` (stereo unspecified) returned a melting point of 81 to 82 °C.

In turn, `Cc1cccc2nc(C(C)Nc3ncnc4c3ncn4COCC[Si](C)(C)C)n(-c3cccc(C(N)=O)c3)c(=O)c12` (stereo unspecified) came in with a melting point of 195 to 197 °C.

As for `COc1cc(COc2nn(Cc3ccccc3)cc2/C=C/C(=O)O)ccc1OCc1nc(-c2ccco2)oc1C`, the melting point lay within 175 to 176 °C.

`CN(C)C(=O)CNC(=O)c1ccc(-c2ccc3nnn(Cc4ccc5ncccc5c4)c3n2)cc1F` gave a melting point of 177 to 179 °C.
